The source of these data is PMC6155302, “Anti-Cancer Activity of Resveratrol and Derivatives Produced by Grapevine Cell Suspensions in a 14 L Stirred Bioreactor” (Molecules : A Journal of Synthetic Chemistry and Natural …, 2017).

One experiment has as its system HT-144 cells. The experiment is described as follows: MTT cell viability assay, HT-144 melanoma cells. The format is cell-based, human. The settings on record: for Cell viability inhibition, HT-144 (result in words): 10–100 μM, 6, 24 and 48 h; for IC50: Homo sapiens, HT-144, 24 h. The procedure: (§1) Three cell types were studied. The HT-144 and SKMEL-28 cell lines derived from human melanoma and were obtained from the American Tissue Culture Collection (ATCC). They were grown in Mc Coy’s 5a modified and minimal essential medium (MEM) respectively, supplemented with 10% (v/v) fetal bovine serum (FBS) and 1% (v/v) antibiotic (penicillin, streptomycin) at 37 °C in a humidified atmosphere of 5% CO2. Human dermal fibroblasts (HDF) were isolated from skin biopsies of healthy subjects. Briefly, the hypodermis was mechanically removed and explants were cut in 1 mm^2 pieces. Skin fragments were then cultivated in Dulbecco’s minimal essential medium (DMEM) supplemented with 20% FBS, 1% antibiotic and 1% fungizone at 37 °C in a humidified atmosphere of 5% CO2. The medium was changed every two days. After 4 weeks of cultures, fibroblasts have covered all the surface of the culture dishes and were trypsined. Cells were grown in DMEM containing 10% FBS and 1% antibiotic at 37 °C in a humidified atmosphere of 5% CO2. Subcultures 3 to 9 were used in this study.
(§2) The three cell types were seeded into 96-well plates (0.32 cm^2, 5500 cells in 200 μL medium par well). After 24 h of culture, the cells were treated in triplicate wells with different bio-produced stilbenes and synthetic resveratrol (≥99%, Sigma-Aldrich, Saint-Quentin Fallavier, France) amounts and treatment times. Compounds were dissolved in ethanol at a 5 × 10^−2 M final concentration and stored at −20 °C. Compounds were diluted in culture media, with or without FBS, to the desired final concentration. All control and treated cells received a maximal volume of 0.1% (v/v) of ethanol.
(§3) Cell viability was tested by the MTT [3-(4,5-dimethyl thiazol-2yl)-2,5-diphenyltetrazolium bromide] assay (Sigma-Aldrich). After MTT addition (0.5 mg/mL), the plates were incubated for 3 h at 37 °C in a humidified atmosphere of 5% CO2. At the end of the incubation period, the medium was removed and the converted dye was solubilized with dimethyl sulfoxide (DMSO). Absorbance of the converted dye was measured at a wavelength of 560 nm using a plate reader Tecan F200 Pro (Tecan, Lyon, France). The 50% inhibitory concentration (IC50) for each bio-produced stilbene was defined as the concentration producing 50% decrease in cell growth.
(Formazan colour is commonly taken as a measure of viable cells.)

A further experiment relates to SKMEL-28 cells. As to the kind of experiment: MTT cell viability assay, SKMEL-28 melanoma cells. The format is cell-based, human. The settings on record: for Cell viability inhibition, SKMEL-28 (result in words): 10–100 μM, 6, 24 and 48 h; for IC50: Homo sapiens, SK-MEL-28, 24 h. The procedure: as §1, §2, §3
For another experiment, the system named is HDF cells. As to the kind of experiment: MTT cell viability assay, healthy human dermal fibroblasts. Format: cell-based. Particulars: for Cell viability inhibition, HDF (result in words): 10–100 μM, 6, 24 and 48 h; for IC50: Homo sapiens, HDF, 24 h. Here is the method:
as §1, §2, §3

[1] abbreviates: with FBS (10% FBS), read-out: IC50 HT-144 with FBS.
Where [2] appears, read: without FBS (0% FBS), read-out: IC50 HT-144 without FBS.
The mark [3] stands for this setting: with FBS (10% FBS), read-out: IC50 SKMEL-28 with FBS.
[4] abbreviates: without FBS (0% FBS), read-out: IC50 SKMEL-28 without FBS.
Setting [5] is: with FBS (10% FBS), read-out: IC50 HDF with FBS.
Where [6] appears, read: without FBS (0% FBS), read-out: IC50 HDF without FBS.

Read-outs that look alike come from different tables or passages of the source. Where only a bound is given, the exact number is not on record here.

For `Oc1ccc(C(O)C(Oc2ccc(C=Cc3cc(O)cc(O)c3)cc2)c2cc(O)cc(O)c2)cc1` (stereo not drawn) [Dimer (6)], in the experiment on HT-144 cells, the “Cell viability inhibition, HT-144 (result in words)” value is “significant cell viability inhibition”. The IC50 (usually the point on the concentration scale where inhibition reaches its midpoint) was above 100 µM with HT-144 cells (setting [1]); 24.9 ± 0.62 µM in the experiment with HT-144 cells (setting [2]); above 100 µM in the experiment on SKMEL-28 cells (setting [3]); 23 ± 0.3 µM with SKMEL-28 cells (setting [4]); above 100 µM in the experiment with HDF cells (setting [5]); 22.2 ± 2.61 µM in the experiment with HDF cells (setting [6]). Further, in the experiment on SKMEL-28 cells, the “Cell viability inhibition, SKMEL-28 (result in words)” value was “significant cell viability inhibition”. The “Cell viability inhibition, HDF (result in words)” value (“Cell viability inhibition, HDF” for short) in the experiment on HDF cells was “significant cell viability inhibition”.

Take `Oc1ccc([C@@H]2c3c(O)cc(O)cc3[C@H]3[C@H](c4ccc(O)cc4)c4c(O)cc(O)cc4[C@@H]23)cc1` [Pallidol, pallidol]: the IC50 in the experiment on HT-144 cells (setting [1]), with HT-144 cells (setting [2]), in the experiment on SKMEL-28 cells (setting [3]), in the experiment on SKMEL-28 cells (setting [4]), in the experiment with HDF cells (setting [5]) and with HDF cells (setting [6]) was above 100 µM throughout.

As to `Oc1ccc(/C=C/c2cc(O)cc(O)c2)cc1` [Trans-resveratrol, trans-resveratrol], the half-inhibitory concentration (IC50) in the experiment with HT-144 cells (setting [1]) was 93.3 ± 7.6 µM; in the experiment on HT-144 cells (setting [2]), above 100 µM; in the experiment on SKMEL-28 cells (setting [3]), above 100 µM; in the experiment on SKMEL-28 cells (setting [4]) it was above 100 µM; with HDF cells (setting [5]), above 100 µM; with HDF cells (setting [6]), above 100 µM.

`Oc1ccc(/C=C/c2cc(O)cc(O)c2)cc1` [synthetic resveratrol, trans-resveratrol, reference compound]: the “Cell viability inhibition, HT-144 (result in words)” value in the experiment on HT-144 cells is “dose-dependent decrease in cell growth”. In the experiment with SKMEL-28 cells, the “Cell viability inhibition, SKMEL-28 (result in words)” value was “dose-dependent decrease in cell growth”. Further, the “Cell viability inhibition, HDF” value with HDF cells is recorded as “dose-dependent decrease in cell growth”.

In the case of `Oc1ccc(/C=C/c2cc(O)cc3c2[C@@H](c2cc(O)cc(O)c2)[C@H](c2ccc(O)cc2)O3)cc1` [ɛ-viniferin, ε-viniferin], in the experiment on HT-144 cells, the “Cell viability inhibition, HT-144 (result in words)” value is recorded as “significant cell viability inhibition”. In addition, the half-maximal inhibitory concentration (IC50) came out at 82.3 ± 3.23 µM in the experiment on HT-144 cells (setting [1]); 17.58 ± 0.09 µM with HT-144 cells (setting [2]); 86.6 ± 2.59 µM with SKMEL-28 cells (setting [3]); 15.9 ± 0.44 µM in the experiment on SKMEL-28 cells (setting [4]); 91.9 ± 11.3 µM in the experiment with HDF cells (setting [5]); 16.4 ± 1.19 µM in the experiment on HDF cells (setting [6]). In addition, in the experiment on SKMEL-28 cells, the “Cell viability inhibition, SKMEL-28 (result in words)” value is given as “significant cell viability inhibition”. Moreover, the “Cell viability inhibition, HDF” value with HDF cells is “significant cell viability inhibition”.
